Data on 52 molecules can be found in PubChem BioAssay AID1421 (Emory University Molecular Libraries Screening Center, 2008).

Structures are written as SMILES.

Chain of Prostaglandin E2 receptor EP2 subtype (Homo sapiens) (P43116 whole entry, looked up): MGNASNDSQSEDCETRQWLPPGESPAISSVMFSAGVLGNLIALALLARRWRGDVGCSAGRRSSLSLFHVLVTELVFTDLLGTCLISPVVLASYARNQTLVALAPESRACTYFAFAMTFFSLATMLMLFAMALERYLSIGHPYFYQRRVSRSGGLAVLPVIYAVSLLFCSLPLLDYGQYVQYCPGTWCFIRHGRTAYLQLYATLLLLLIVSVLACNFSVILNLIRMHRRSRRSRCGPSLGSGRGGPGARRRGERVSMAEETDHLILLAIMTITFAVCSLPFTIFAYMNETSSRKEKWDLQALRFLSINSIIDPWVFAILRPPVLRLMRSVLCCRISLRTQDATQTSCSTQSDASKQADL

This assay has as its target Prostaglandin E2 receptor EP2 subtype (Homo sapiens) (UniProt P43116). Description: compounds shifting PGE2 potency at EP2 – cell-based, human EP2, PGE2 EC50 shift, dose response (AID 1421). To be noted: EP2-expressing cells, PGE2 EC50 shift by compound; measured here: PGE2 EC50 at 6.7 uM compound.
For the molecule `O=c1c2ccccc2c(=O)n(Cc2ccccc2)n1Cc1ccccc1`, the PGE2 EC50 with compound came out at 1.16 nM.

For `CCOC(=O)c1cc(CC)sc1NC(=O)c1ccc2c(c1)OCCO2`, the PGE2 EC50 with compound came to 0.97 nM.

As for `C=CCSc1nc2ccccc2c(=O)n1Cc1ccco1`, the PGE2 EC50 with compound amounted to 0.91 nM.

Regarding `CCCOc1ccc(Cl)cc1CNc1ccccc1`, the PGE2 EC50 with compound worked out at 1.22 nM.

As to `CCCn1cnc2sc(CC)cc2c1=O`, the PGE2 EC50 with compound stood at 1.25 nM.

For `O=[N+]([O-])c1ccc(Cl)c2c1C1C=CCC1C(c1ccccn1)N2` (configuration not stated), the PGE2 EC50 with compound came to 0.69 nM.

`Cc1nc(N(C)C)c2sc(=S)n(Cc3ccccc3)c2n1`: the PGE2 EC50 with compound came out at 1.21 nM.

For the molecule `C=CCOc1ccccc1CNc1cccc(F)c1`, the PGE2 EC50 with compound was found to be 0.84 nM.

With `COC(=O)c1cc2ccsc2n1Cc1cccc(F)c1`, the PGE2 EC50 with compound turned out to be 0.95 nM.

As for `CCCCc1n[nH]c(=S)n1Cc1ccc(Cl)cc1`, the PGE2 EC50 with compound turned out to be 1.57 nM.

`C=CCSc1nc(Oc2ccccc2)c2sccc2n1`: the PGE2 EC50 with compound is 2.43 nM.

As for `CC1=CC(C)(C)N(C(=O)c2ccccc2)c2ccccc21`, the PGE2 EC50 with compound came to 0.8 nM.

Regarding `CSc1nc2ccccc2c(=O)n1Cc1ccc(F)cc1`, the PGE2 EC50 with compound was 0.87 nM.

Take `O=C(NCc1ccco1)c1ccc(=O)[nH]n1`: the PGE2 EC50 with compound was 1.06 nM.

`C/C(=N\NC(=O)NC1CCCCC1)C1CCCCC1`: the PGE2 EC50 with compound was 1.79 nM.

Consider `Cc1ccc2nc(Nc3ccc4[nH]c(=O)[nH]c4c3)c(-n3nc(C)cc3C)nc2c1`, for which the PGE2 EC50 with compound is 2.69 nM.

For `Nc1c(C(=O)NCc2ccco2)c2nc3ccccc3nc2n1CCc1ccccc1`, the PGE2 EC50 with compound is 1.78 nM.

On to `COc1cc(C)c(NC(c2ccccc2)c2ccccc2)cc1OC`, for which the PGE2 EC50 with compound is 1.5 nM.

For the molecule `CCCCNc1nc(N(C)c2ccccc2)nc(-n2ccnc2)n1`, the PGE2 EC50 with compound amounted to 1.11 nM.

Regarding `O=C(Nc1cccc(Cl)c1N1CCCCC1)c1ccc2c(c1)OCCO2`, the PGE2 EC50 with compound was determined as 0.64 nM.

For `O=C1COc2ccccc2N1Cc1ccccc1Cl`, the PGE2 EC50 with compound was found to be 1.38 nM.

For the molecule `c1ccc(CCc2ccccc2-c2nc(-c3cccnc3)no2)cc1`, the PGE2 EC50 with compound was determined as 0.84 nM.

With `c1ccc(-c2nn3c(C4CCCCC4)nnc3s2)cc1`, the PGE2 EC50 with compound stood at 1.07 nM.

As for `CC(C)C1COC(c2cccn2Cc2ccccc2Cl)=N1` (configuration not stated), the PGE2 EC50 with compound is 0.95 nM.

As for `S=c1[nH]nc(Cc2ccccc2)n1Cc1ccco1`, the PGE2 EC50 with compound was found to be 2.65 nM.

On to `CN1C(=O)/C(=C/c2ccccc2OCc2cccc(F)c2)N(C)C1=S`, for which the PGE2 EC50 with compound was 0.81 nM.

`CCCCOc1ccccc1Cn1c(=O)oc2ccccc21`: the PGE2 EC50 with compound is 0.81 nM.

Consider `Cc1ccccc1S(=O)(=O)c1c(C)cc(C)n(CC(C)C)c1=O`, for which the PGE2 EC50 with compound worked out at 2.47 nM.

With `CCn1ncc(Cl)c1C(=O)Nc1cc(Cl)ccc1Cl`, the PGE2 EC50 with compound turned out to be 0.7 nM.

Consider `CCc1nc2c(cnn2-c2ccc(Cl)cc2)c(=O)n1-c1ccc(OC)cc1`, for which the PGE2 EC50 with compound worked out at 0.85 nM.

On to `COc1cccc(N=c2oc3c(C)ncc(CO)c3cc2C(=O)Nc2ccccc2OC)c1`, for which the PGE2 EC50 with compound came out at 1.48 nM.

`Cc1onc(-c2ccccc2)c1C(=O)N(Cc1ccco1)Cc1cccs1`: the PGE2 EC50 with compound stood at 0.34 nM.

For the molecule `Cc1c(NC(=S)NC(=O)c2ccc(-c3ccc(Cl)cc3)o2)cccc1C(=O)O`, the PGE2 EC50 with compound worked out at 0.25 nM.

As for `Cc1ccc(C(=O)Nc2ccccc2N2CCCCC2)cc1[N+](=O)[O-]`, the PGE2 EC50 with compound was determined as 0.66 nM.

Take `CCOC(=O)C1CCCN(C(=O)c2ccc(C)cc2O)C1` (configuration not stated): the PGE2 EC50 with compound is 1.44 nM.

With `CCSc1nc2c(c(=O)[nH]c(=O)n2C)n1Cc1ccc(Cl)cc1`, the PGE2 EC50 with compound worked out at 1.24 nM.

Take `Cc1ccccc1Nc1cccc2nonc12`: the PGE2 EC50 with compound is 0.64 nM.

For `COC(=O)NC1(C(F)(F)F)C(=O)NC(C)=C1C(=O)OC` (configuration not stated), the PGE2 EC50 with compound stood at 1.02 nM.

In the case of `Cc1ccc(C(C)C)c(OCc2ccc(-c3nnco3)cc2)c1`, the PGE2 EC50 with compound turned out to be 2.51 nM.

For the molecule `CCCCOc1ccc(-c2c(C(=O)Nc3ccccc3)c(C)[nH]c(=S)c2C#N)cc1`, the PGE2 EC50 with compound worked out at 2.8 nM.

`Cc1c(F)cccc1NC(=O)CCCCCC1NC(=O)NC1C` (configuration not stated): the PGE2 EC50 with compound came out at 1.84 nM.

As for `CC1(C)Oc2ccc(C(=O)N3CCOCC3)cc2N(CC(=O)N2CCOCC2)C1=O`, the PGE2 EC50 with compound was found to be 1.69 nM.

Turning to `CCN(Cc1ccccc1)C(c1cc2cc(C)cc(C)c2[nH]c1=O)c1nnnn1CCOC` (configuration not stated), the PGE2 EC50 with compound turned out to be 1.28 nM.

In the case of `COc1ccc(C(=O)Nc2ccccc2N2CCCCC2)cc1[N+](=O)[O-]`, the PGE2 EC50 with compound is 1.01 nM.

Regarding `COc1ccc(OC)c(-c2cnc(OC(C)(C)C)nc2OC(C)(C)C)c1`, the PGE2 EC50 with compound is 1.35 nM.

Take `CCC(C)(C)c1ccc(OCC(=O)N(C)C)c(C(C)(C)CC)c1`: the PGE2 EC50 with compound worked out at 5.61 nM.

Regarding `CCOc1ccc(C2=Nn3c(nnc3-c3ccccc3OC)SC2)cc1`, the PGE2 EC50 with compound turned out to be 0.91 nM.

Consider `CC1=Nc2ccccc2/C1=C/c1sc(=S)n(-c2cccc(C(=O)O)c2)c1O`, for which the PGE2 EC50 with compound was determined as 0.4 nM.

On to `CCOc1ccccc1NC1c2ccccc2C(=O)N1c1ccc(C)cn1` (configuration not stated), for which the PGE2 EC50 with compound was found to be 0.89 nM.

Turning to `Cc1ccc(-n2c(=S)[nH]c3c(oc4ccccc43)c2=O)cc1C`, the PGE2 EC50 with compound amounted to 1.76 nM.

For the molecule `Cc1nn(Cc2c(Cl)cccc2Cl)c(C)c1C(=O)NCc1ccc(C)n1C`, the PGE2 EC50 with compound amounted to 1.18 nM.

Regarding `O=C(O)c1ccc(N2C(=O)/C(=C/C=C/c3ccccc3)SC2=S)cc1`, the PGE2 EC50 with compound worked out at 2.89 nM.
